Reference: US6759557B2, “Melanin production inhibitors and skincare products containing such inhibitors” (Takasago International Corporation, priority 2001, dated 2004)

How the values were obtained:
melanoma cells B-16 = experiment: Inhibiting effect on melanin synthesis in pigment cells (whiteness of cell residue observed by eye); assay type: cell-based; design: key to whiteness of cells rated by eye (melanin synthesis inhibition): −: same colour as the comparative solvent example (black); +: slight colour difference from the comparative solvent example (black grey); ++: clear colour difference from the comparative solvent example (white grey); +++: no colour in the cells (white); settings: 4 days, B-16 melanoma cells
Description: In plastic culture flasks ([…]), 5×10^4 of melanoma cells B-16 were respectively inoculated and cultivated at 37° C. in DMEM culture media each containing 10% of blood serum (Nippon Suisan Co. Ltd) in the presence of 5% of carbon dioxide. After two days of cultivation, test samples diluted with ethanol were added to the culture media, so as to set their concentrations, respectively, at 1.6, 3.1 and 6.3 ppm for the compounds of Formula (1) where X is —CO— or —CHOH—, and at 0.8, 1.6 and 3.1 ppm for the compounds of Formula (1) where X is —CO—CHOH—. The culture media were further cultivated for 4 days.
When the cultivation was terminated, the culture media were removed from the respective flasks and the remaining cells were rinsed with a phosphate buffer solution (PBS hereinafter). The cells in each flask were treated with a culture medium containing trypsin and EDTA (ethylenediaminetetracetic acid) to yield cell suspensions. The latter were subjected to centrifugation, and the cells were recovered.
The obtained cells were once washed with PBS. The residues were observed by eye, and their whiteness was rated as below.

Structure (SMILES)	whiteness of cells rated by eye (melanin synthesis inhibition) (melanoma cells B-16; 0.8 ppm in culture medium)	whiteness of cells rated by eye (melanin synthesis inhibition) (melanoma cells B-16; 1.6 ppm in culture medium)	whiteness of cells rated by eye (melanin synthesis inhibition) (melanoma cells B-16; 3.1 ppm in culture medium)	melting point [°C]	whiteness of cells rated by eye (melanin synthesis inhibition) (melanoma cells B-16; 6.3 ppm in culture medium)
O=C1CCCCCCCCCCCCCCCCCCCCCCC1O (centres unmarked) [2-hydroxycyclotetracosanone]	++	+++	+++	39 to 40	
O=C1CCCCCCCCCCCCCCCCC1O (centres unmarked) [2-hydroxycyclooctadecanone]	+	++	+++	31 to 32	
O=C1CCC/C=C\CCCCCCCCCC1 [5(Z)-cyclohexadecenone]		+	++		+++
CCCCCCCC(=O)CCCCCCC [8-pentadecanone, reference compound]			−		−
O=C1CCCCCCCCCCC1 [cyclododecanone, reference compound]			−		+
O=C1CCCCCCCCCCCCCCC1 [cyclohexadecanone]		+	++		+++
O=C1CCCCCCCCCCCCCCCCCCC1 [cycloeicosanone]		+	++		+++
CCCCCCCCC(=O)CCCCCCCC [9-heptadecanone, reference compound]			−		−
O=C1CCC/C=C/CCCCCCCCCC1 [5(E)-cyclohexadecenone]		+	++		+++
O=C1CCCCCCCC=CCCCCCCC1 (mixture of isomers) [9(EZ)-cycloheptadecenone]		+	++		+++
